These compounds were tested against human calcitonin receptor (CTR) and RAMP3 (AMY3) in COS-7 cells (Homo sapiens, UniProt O60896+P30988) (assay: Amylin Receptor cAMP Assay I). Conditions: values marked *: Amylin Receptor cAMP Assay I; COS-7/AMY3 cells; read-out: Amylin Receptor cAMP Stimulation Activity: EC50.
Chain of human calcitonin receptor (CTR) and RAMP3 (AMY3) in COS-7 cells (P30988 25-474): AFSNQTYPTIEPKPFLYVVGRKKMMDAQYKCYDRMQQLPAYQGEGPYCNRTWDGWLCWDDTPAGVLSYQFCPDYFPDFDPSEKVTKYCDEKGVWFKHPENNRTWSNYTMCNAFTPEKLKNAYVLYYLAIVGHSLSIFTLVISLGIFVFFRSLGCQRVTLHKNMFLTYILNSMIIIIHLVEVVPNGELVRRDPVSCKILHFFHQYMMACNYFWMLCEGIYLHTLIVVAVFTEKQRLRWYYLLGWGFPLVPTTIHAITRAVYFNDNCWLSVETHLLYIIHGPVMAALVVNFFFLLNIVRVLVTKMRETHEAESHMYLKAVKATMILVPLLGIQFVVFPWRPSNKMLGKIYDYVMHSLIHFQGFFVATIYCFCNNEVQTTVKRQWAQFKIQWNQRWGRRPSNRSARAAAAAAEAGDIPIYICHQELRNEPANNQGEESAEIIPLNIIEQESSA
Chain of human calcitonin receptor (CTR) and RAMP3 (AMY3) in COS-7 cells (O60896 24-148): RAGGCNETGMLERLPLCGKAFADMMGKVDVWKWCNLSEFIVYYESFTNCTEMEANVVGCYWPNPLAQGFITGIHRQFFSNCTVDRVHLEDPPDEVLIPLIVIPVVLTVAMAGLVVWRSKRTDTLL
Type: cell-based
Text: Amylin Receptor cAMP Assay I
AMYRs are heterodimers of the class B calcitonin (CT) G-protein-coupled receptor (CTR) and receptor activity-modifying proteins (RAMPs). All three RAMPs can interact with the CTR and form AMY1, AMY2, AMY3 with RAMP1, RAMP2 and RAMP3, respectively. Like other class B1 GPCRs, the CT receptor family is canonically coupled to Gs-mediated cAMP production, and measurement of cAMP accumulation has been the primary assay used to determine peptide selectivity and potency.
To optimize functional activity directed toward Gas coupling, COS-7 cells were stably transfected with human calcitonin receptor (CTR) and RAMP3, simultaneously. 100× concentration of compound working solutions were prepared (Agilent Technologies Bravo) with 4-fold serial dilution in 384-well Echo LDV plate (Labcyte, Cat #LP-0200). 100 nL/well 100× concentration of compound working solutions were moved to 384-well white low volume plate (Greiner, Cat #784075) using Labcyte ECHO550. 1×10^5 cells/mL COS-7/CTR or COS-7/AMY3 (HD Biosciences) cell suspensions prepared with assay buffer [DPBS containing 0.5 mM IBMX (Sigma, Cat #15879) and 0.1% BSA (GENVIEW, Cat #FA016-100 g)], 10 μL cell suspensions were added to each well of previous generated assay plate which already contains 100 nL compound at 100× concentration using ThermoFisher Multidrop Combi (1000 cells/well). Seal the plate and incubate at 37° C. with 5% CO2 for 30 min.
After incubation, the cAMP assay signal was generated using cAMP Hi-range Kit (Cisbio). 5 μL cAMP-d2 working solution was added to each well, followed by 5 μL Anti-cAMP antibody-cryptate working solution which was added to each well using ThermoFisher Multidrop Combi. The samples were then incubated at room temperature for 1 hour protected from light. the fluorescence was read at 665 and 615 nm with Reader PerkinElmer EnVision.
Cc1noc(-c2c(CCc3ccc(F)cc3)nc(CC(C)C)c(C(N)=O)c2-c2ccc(C(=O)N[C@@H]3CCc4ccccc43)s2)n1 [Compound 101, N—[(R)-1-indanyl]-5-{5-carbamoyl-2-[2-(p-fluorophenyl)ethyl]-6-isobutyl-3-(3-methyl-1,2,4-oxadiazol-5-yl)-4-pyridyl}-2-thenamide] gave an EC50 of 84.7 nM.
For Cc1noc(-c2c(CCc3ccc(F)cc3)nc(CC(C)C)c(C(N)=O)c2-c2ccc(C(=O)NCc3ccc(F)c(F)c3)s2)n1 [Compound 102, N-(3,4-difluorophenyl)methyl-5-{5-carbamoyl-2-[2-(p-fluorophenyl)ethyl]-6-isobutyl-3-(3-methyl-1,2,4-oxadiazol-5-yl)-4-pyridyl}-2-thenamide], the EC50 was 85.9 nM.
For CC(C)Cc1nc(CCc2ccc(F)cc2)c(-c2nc(C(C)C)no2)c(-c2ccc(C(=O)NCc3ccc(F)c(F)c3)s2)c1C(N)=O [Compound 103, N-(3,4-difluorophenyl)methyl-5-{5-carbamoyl-2-[2-(p-fluorophenyl)ethyl]-6-isobutyl-3-(3-isopropyl-1,2,4-oxadiazol-5-yl)-4-pyridyl}-2-thenamide], the EC50 was 314 nM.
Cc1noc(-c2c(CCc3ccc(F)cc3)nc(CC(C)C)c(C(N)=O)c2-c2ccc(-c3cn(Cc4ccc(F)c(F)c4)nn3)s2)n1 [Compound 104, 4-(5-{1-[(3,4-difluorophenyl)methyl]-1H-1,2,3-triazol-4-yl}-2-thienyl)-6-[2-(p-fluorophenyl)ethyl]-2-isobutyl-5-(3-methyl-1,2,4-oxadiazol-5-yl)nicotinamide] gave an EC50 of 444 nM.
In the case of CC(C)Cc1nc(CCc2ccc(F)cc2)c(-c2nc(C(F)(F)F)no2)c(-c2ccc(C(=O)NCc3ccc(F)c(F)c3)s2)c1C(N)=O [Compound 105, N-(3,4-difluorophenyl)methyl-5-{5-carbamoyl-2-[2-(p-fluorophenyl)ethyl]-6-isobutyl-3-[3-(trifluoromethyl)-1,2,4-oxadiazol-5-yl]-4-pyridyl}-2-thenamide], the EC50 is reported as 591 nM.
For Cc1nnc(-c2c(CCCC(C)C)nc(CC(C)C)c(C(N)=O)c2-c2ccc(C(=O)NCc3ccc(F)c(F)c3)s2)o1 [Compound 108, 4-(5-((3,4-difluorobenzyl)carbamoyl)thiophen-2-yl)-2-isobutyl-5-(5-methyl-1,3,4-oxadiazol-2-yl)-6-(4-methylpentyl)nicotinamide], the EC50 was 70.7 nM.
Cc1nnc(-c2c(CCC3CCCCC3)nc(CC(C)C)c(C(N)=O)c2-c2ccc(C(=O)NCc3ccc(F)c(F)c3)s2)o1 [Compound 109, 6-(2-cyclohexylethyl)-4-(5-((3,4-difluorobenzyl)carbamoyl)thiophen-2-yl)-2-isobutyl-5-(5-methyl-1,3,4-oxadiazol-2-yl)nicotinamide] showed an EC50 of 20 nM.
In the case of Cc1nnc(-c2c(Cc3ccc(F)cc3)nc(CC(C)C)c(C(N)=O)c2-c2ccc(C(=O)NCc3ccc(F)c(F)c3)s2)o1 [Compound 110, 4-(5-((3,4-difluorobenzyl)carbamoyl)thiophen-2-yl)-6-(4-fluorobenzyl)-2-isobutyl-5-(5-methyl-1,3,4-oxadiazol-2-yl)nicotinamide], the EC50 is reported as 74.1 nM.
Cc1nnc(-c2c(CC(C)C)nc(CC(C)C)c(C(N)=O)c2-c2ccc(C(=O)NCc3ccc(F)c(F)c3)s2)o1 [Compound 111, 4-(5-((3,4-difluorobenzyl)carbamoyl)thiophen-2-yl)-2,6-diisobutyl-5-(5-methyl-1,3,4-oxadiazol-2-yl)nicotinamide] showed an EC50 of 650 nM.
For CCc1nc(CC(C)C)c(C(N)=O)c(-c2ccc(C(=O)NCc3ccc(F)c(F)c3)s2)c1-c1nnc(C)o1 [Compound 112, 4-[5-[(3,4-difluorophenyl)methylcarbamoyl]-2-thienyl]-6-ethyl-2-isobutyl-5-(5-methyl-1,3,4-oxadiazol-2-yl)pyridine-3-carboxamide], the EC50 was greater than 11400 nM.
Compound COc1cccc(CNC(=O)c2ccc(-c3c(C(N)=O)c(CC(C)C)nc(CCc4ccc(F)cc4)c3-c3nnc(C)o3)s2)c1 [Compound 113, N-(m-methoxyphenyl)methyl-5-{5-carbamoyl-2-[2-(p-fluorophenyl)ethyl]-6-isobutyl-3-(5-methyl-1,3,4-oxadiazol-2-yl)-4-pyridyl}-2-thenamide] has an EC50 of 6.2 nM.
In the case of COc1ccc(CNC(=O)c2ccc(-c3c(C(N)=O)c(CC(C)C)nc(CCc4ccc(F)cc4)c3-c3nnc(C)o3)s2)cc1 [Compound 114, N-(p-methoxyphenyl)methyl-5-{5-carbamoyl-2-[2-(p-fluorophenyl)ethyl]-6-isobutyl-3-(5-methyl-1,3,4-oxadiazol-2-yl)-4-pyridyl}-2-thenamide], the EC50 is reported as 323 nM.
With Cc1nnc(-c2c(CCc3ccc(F)cc3)nc(CC(C)C)c(C(N)=O)c2-c2ccc(C(=O)NCc3ccccc3)s2)o1 [Compound 115, N-benzyl-5-{5-carbamoyl-2-[2-(p-fluorophenyl)ethyl]-6-isobutyl-3-(5-methyl-1,3,4-oxadiazol-2-yl)-4-pyridyl}-2-thenamide] the EC50 was 85 nM.
With COc1cc(F)cc(CNC(=O)c2ccc(-c3c(C(N)=O)c(CC(C)C)nc(CCc4ccc(F)cc4)c3-c3nnc(C)o3)s2)c1 [Compound 116, N-[(3-fluoro-5-methoxyphenyl)methyl]-5-{5-carbamoyl-2-[2-(p-fluorophenyl)ethyl]-6-isobutyl-3-(5-methyl-1,3,4-oxadiazol-2-yl)-4-pyridyl}-2-thenamide] the EC50 was 13.9 nM.
COc1cc(CNC(=O)c2ccc(-c3c(C(N)=O)c(CC(C)C)nc(CCc4ccc(F)cc4)c3-c3nnc(C)o3)s2)ccc1F [Compound 117, N-[(4-fluoro-3-methoxyphenyl)methyl]-5-{5-carbamoyl-2-[2-(p-fluorophenyl)ethyl]-6-isobutyl-3-(5-methyl-1,3,4-oxadiazol-2-yl)-4-pyridyl}-2-thenamide] gave an EC50 of 40.2 nM.
Work on Cc1nnc(-c2c(CCc3ccc(F)cc3)nc(CC(C)C)c(C(N)=O)c2-c2ccc(C(=O)N[C@H]3CCc4ccccc43)s2)o1 [Compound 118, (S)-4-(5-((2,3-dihydro-1H-inden-1-yl)carbamoyl)thiophen-2-yl)-6-(4-fluorophenethyl)-2-isobutyl-5-(5-methyl-1,3,4-oxadiazol-2-yl)nicotinamide] yielded an EC50 of 211 nM.
For Cc1nnc(-c2c(CCc3ccc(F)cc3)nc(CC(C)C)c(C(N)=O)c2-c2ccc(C(=O)N[C@@H]3CCc4c(F)cccc43)s2)o1 [Compound 119, (R)-4-(5-((4-fluoro-2,3-dihydro-1H-inden-1-yl)carbamoyl)thiophen-2-yl)-6-(4-fluorophenethyl)-2-isobutyl-5-(5-methyl-1,3,4-oxadiazol-2-yl)nicotinamide], the EC50 was 2.7 nM.
Work on Cc1nnc(-c2c(CCc3ccc(F)cc3)nc(CC(C)C)c(C(N)=O)c2-c2ccc(C(=O)N[C@@H]3CCc4cc(F)ccc43)s2)o1 [Compound 120, (R)-4-(5-((5-fluoro-2,3-dihydro-1H-inden-1-yl)carbamoyl)thiophen-2-yl)-6-(4-fluorophenethyl)-2-isobutyl-5-(5-methyl-1,3,4-oxadiazol-2-yl)nicotinamide] yielded an EC50 of 1.7 nM.
Cc1nnc(-c2c(CCc3ccc(F)cc3)nc(CC(C)C)c(C(N)=O)c2-c2ccc(C(=O)N[C@@H]3CCc4ccc(F)cc43)s2)o1 [Compound 121, (R)-4-(5-((6-fluoro-2,3-dihydro-1H-inden-1-yl)carbamoyl)thiophen-2-yl)-6-(4-fluorophenethyl)-2-isobutyl-5-(5-methyl-1,3,4-oxadiazol-2-yl)nicotinamide] was tested, and the EC50 was 1 nM.
For Cc1nnc(-c2c(CCc3ccc(F)cc3)nc(CC(C)C)c(C(N)=O)c2-c2ccc(C(=O)N[C@@H]3CCc4ncccc43)s2)o1 [Compound 123, (R)-4-(5-((6,7-dihydro-5H-cyclopenta[b]pyridin-5-yl)carbamoyl)thiophen-2-yl)-6-(4-fluorophenethyl)-2-isobutyl-5-(5-methyl-1,3,4-oxadiazol-2-yl)nicotinamide], the EC50 was 37.2 nM.
Compound Cc1nnc(-c2c(CCc3ccc(F)cc3)nc(CC(C)C)c(C(N)=O)c2-c2ccc(C(=O)N[C@H]3CCc4ncccc43)s2)o1 [Compound 124, (S)-4-(5-((6,7-dihydro-5H-cyclopenta[b]pyridin-5-yl)carbamoyl)thiophen-2-yl)-6-(4-fluorophenethyl)-2-isobutyl-5-(5-methyl-1,3,4-oxadiazol-2-yl)nicotinamide] has an EC50 of 35.8 nM.
Cc1nnc(-c2c(CCc3ccc(F)cc3)nc(CC(C)C)c(C(N)=O)c2-c2ncc(C(=O)NCc3ccc(F)c(F)c3)s2)o1 [Compound 125, N-(3,4-difluorophenyl)methyl-2-{5-carbamoyl-2-[2-(p-fluorophenyl)ethyl]-6-isobutyl-3-(5-methyl-1,3,4-oxadiazol-2-yl)-4-pyridyl}-1,3-thiazole-5-carboxamide] was tested, and the EC50 was 212 nM.
Cc1nnc(-c2c(CCc3ccc(F)cc3)nc(CC(C)C)c(C(N)=O)c2-c2ccc(C(=O)NCc3ccc(F)c(F)c3)cc2)o1 [Compound 126, 4-(p-{[(3,4-difluorophenyl)methyl]carbamoyl}phenyl)-6-[2-(p-fluorophenyl)ethyl]-2-isobutyl-5-(5-methyl-1,3,4-oxadiazol-2-yl)nicotinamide] showed an EC50 of 162 nM.

— US20250042916A1 (ACONCAGUA BIO, INC., priority 2023, published 2025)
